Experimental data as given in patent publication US10632100B2, “Application of obacunone in preparation of drug for preventing and treating lung damage and pulmonary fibrosis” (GUANGDONG PROVINCIAL HOSPITAL OF TRADITIONAL CHINESE …, priority 2016, dated 2020).

Experiments:
[1] = test system: bleomycin-induced lung injury and pulmonary fibrosis; experiment: Inhibition of bleomycin-induced lung injury and pulmonary fibrosis in vivo (HE and Masson staining of lung tissue); parameters: species or system C57BL/6 mice; details: 10 mg/kg obacunone intraperitoneally 48 hours before each bleomycin injection, lung tissue 7 days after last bleomycin, vs bleomycin group
Protocol: (§1) Eighteen C57BL/6 mice, aged 8 weeks, each weighing 18 to 22 g, were provided by the Laboratory Animal Center of Guangzhou University of Chinese Medicine (Certificate No. 44007200023897).
Bleomycin was intraperitoneally injected into 8-week old B6 mice at a dose of 2 mg/mouse, once per week, three times in total. 48 hours before each injection with bleomycin, corn oil or 10 mg/kg obacunone was intraperitoneally injected into B6 mice in advance. 7 days after the last injection with bleomycin, lung tissue was isolated, fixed, sectioned, HE-stained (see Experiment 8 for details), and Masson-stained.

[2] = test system: cytokines IL-6, TGF-β, IL-17, IFN-γ and MCP-1; experiment: Bleomycin-induced expression of inflammatory factors in lung tissue (qPCR); assay type: in vivo, C57BL/6 mice; details: BLM+obacunone injection group vs BLM injection group, FIG. 2
Protocol: as §1
The mRNA levels of cytokines IL-6, TGF-β, IL-17, IFN-γ and MCP-1 were analyzed by qPCR. *P<0.05, **P<0.01 indicated significant differences between the BLM injection group and the normal group; ^# P<0.05, ^## P<0.01 indicated significant differences between the BLM injection group and the BLM+obacunone injection group.

[3] = test system: α-smooth muscle actin (α-SMA); experiment: α-SMA expression in bleomycin-induced pulmonary fibrosis (immunohistochemistry staining); assay type: in vivo, C57BL/6 mice; details: after administration of obacunone, compared to the bleomycin group, FIG. 3
Text: as §1
In pulmonary fibrosis TGF-β induced lung interstitial fibroblasts to transform into myofibroblasts, of which the marker is the expression of α-smooth muscle actin (α-SMA). Therefore, in this experiment the effect of obacunone on the expression of α-SMA in lung myofibroblasts was investigated to provide experimental support for the use of obacunone in treatment and prevention of pulmonary fibrosis.
Steps of immunohistochemistry staining are as follows:
1) placing and baking paraffin wax sections in an electrothermal thermostat oven at 60° C. for 30 min;
2) dewaxing the sections with xylene (8 min for each of I and II), hydrating them with decreasing concentrations of ethanol (8 min for each concentration), and washing with water;
3) performing antigen retrieval, and washing the sections with PBS (3 times×3 min);
4) adding Solution A (S-P kit) dropwise, blocking at room temperature for 10 min, and washing the sections with PBS (3 times×3 min);
5) adding Solution B (S-P kit) dropwise, blocking at room temperature for 10 min, and blotting extra liquid;
6) adding a primary antibody dropwise, placing the sections in a wet box overnight at 4° C., and washing the sections with PBS (3 times×3 min); […]

[4] = test system: liver and kidney of mice; experiment: Damage caused by obacunone to liver and kidney of mice (HE staining); assay type: in vivo, C57BL/6 mice; details: 10 mg/kg obacunone, twice a week, 6 times in total; tissues 7 days after last injection; FIG. 4
Protocol: as §1
8-week aged B6 mice were injected with corn oil or 10 mg/kg obacunone, twice a week, 6 times in total. 7 days after the last injection, liver and kidney tissues were isolated, fixed, sectioned, and HE-stained (FIG. 4), as described below.
HE (Hematoxylin-eosin) staining: the paraffin wax samples were continuously sectioned with the semi-automated rotary microtome, with a thickness of 3.5 μm; for staining, the sections were baked and dried for 20 min, rinsed with xylene (2 times×10 min), with anhydrous ethanol (2 times×2 min), with 95% ethanol for 1 min, with 80% ethanol for 1 min, with 70% ethanol for 1 min, washed with water for 1 min, then stained with hematoxylin for 8 min, […], washed with water (2 times×1 min), with 0.5% HCl-ethanol for 10 sec, washed with water for 10 min, stained with eosin for 2 min, washed with water for 1 min, with 80% ethanol for 5 sec, with 85% ethanol for 5 sec, with 90% ethanol for 5 sec, with 95% ethanol for 1 min, with anhydrous ethanol (2 times×2 min), with anhydrous ethanol for 3 min, and with xylene (2 times×2 min), and then the staining was completed and the sections were directly mounted with neutral gum.

[5] = test system: human colon cancer cells (SW480); details: cited from earlier work
[6] = test system: human pancreatic cancer cells (Panc-28); details: by activating p53; cited from earlier work
[7] = test system: arginase; details: reciprocally increasing NO production; cited from earlier work

CC1(C)OC(=O)C=C[C@]2(C)[C@H]3CC[C@@]4(C)[C@H](c5ccoc5)OC(=O)[C@H]5O[C@]54[C@]3(C)C(=O)C[C@@H]12 [Obacunone]
HE staining of lung tissue: pathological changes (alveolar shrinkage, inflammatory cell infiltration, wall thickening, bullae, interstitial proliferation) ([1]; FIG. 1A): significant improvement of the above pathological changes | Masson staining of lung tissue: precipitation of stroma (collagen, fibronectin) ([1]; FIG. 1B): significant improvement of the above pathological changes | mRNA levels of cytokines IL-6, TGF-β, IL-17, IFN-γ and MCP-1 in lung tissue [2]: repaired these bleomycin-induced changes to a great extent | expression of α-SMA in lung tissue [3]: significantly reduced | effect on liver and kidney (HE-stained sections) [4]: did not apparently affect the liver and kidney of mice | apoptosis of SW480 cells ([5]; by activating cytochrome C): induced cell apoptosis | growth of tumor cells (SW480) ([5]; by activating p21 to arrest the cell cycle at phases G2/M and G1): suppressed growth of tumor cells | apoptosis of Panc-28 tumor cells [6]: induced apoptosis of tumor cells | activity of arginase [7]: inhibiting activity of arginase
